Test results from patent publication US9919053B2, “Cabazitaxel composition” (SUPRATEK PHARMA INC., priority 2012, dated 2018).
In brackets after ≈: the same amount, converted by molar mass. Where two headings read alike, the source gives them in different places.

What was measured:
[1] = Stability of solution of cabazitaxel in aqueous SBECD (HPLC concentration over time); format: physicochemical; conditions: 23° C.
Procedure: A solution containing 2.02 mg/mL cabazitaxel in 20% aqueous SBECD was prepared by sequential dissolving SBECD in water, and cabazitaxel in the resulting solution, followed by filtration through a 0.22 μm filter. Portions of the solution was subsequently diluted with water to form three solutions having the cabazitaxel concentration listed in the Table below, respectively. The solutions were incubated at temperature 23° C. and at selected time points were analyzed using the HPLC. All solutions were stable.

[2] = Equilibrium solubility of cabazitaxel in aqueous SBECD; format: physicochemical; conditions: aqueous SBECD solution, 23 °C, aqueous with cosolvent or surfactant or cyclodextrin, thermodynamic from solid, read-out: Cabazitaxel concentration (equilibrium solubility)
Procedure: Excess of cabazitael was mixed with aqueous SBECD solutions for 16 hours at 23° C. The resulting suspension was filtered through a 0.22 μm filter, and the clear filtrate solution was analyzed by HPLC.

CO[C@H]1C(=O)[C@]2(C)[C@@H](OC)C[C@H]3OC[C@@]3(OC(C)=O)[C@H]2[C@H](OC(=O)c2ccccc2)[C@]2(O)C[C@H](OC(=O)[C@H](O)[C@@H](NC(=O)OC(C)(C)C)c3ccccc3)C(C)=C1C2(C)C [cabazitaxel, (1S,2S,3R,4S,7R,9S,10S,12R,15S)-4-(Acetyloxy)-15-{[(2R,3S)-3-{[(tert-butoxy)carbonyl]amino}-2-hydroxy-3-phenylpropanoyl]oxy}-1-hydroxy-9,12-dimethoxy-10,14,17,17-tetramethyl-11-oxo-6-oxatetracyclo[11.3.1.^03,10.0^4,7]heptadec-13-ene-2-yl benzoate]
Cabazitaxel concentration ([1]; first dilution (0.098 mg/mL at 0 h) of 2.02 mg/mL in 20% SBECD, time 0 hours): 0.098 mg/mL | Cabazitaxel concentration ([1]; first dilution (0.098 mg/mL at 0 h), time 11 hours): 0.099 mg/mL | Cabazitaxel concentration ([1]; first dilution (0.098 mg/mL at 0 h), time 24.5 hours): 0.099 mg/mL | Cabazitaxel concentration ([1]; first dilution (0.098 mg/mL at 0 h), time 36 hours): 0.098 mg/mL | Cabazitaxel concentration ([1]; first dilution (0.098 mg/mL at 0 h), time 45 hours): 0.098 mg/mL | Cabazitaxel concentration ([1]; first dilution (0.098 mg/mL at 0 h), time 100 hours): 0.097 mg/mL | Cabazitaxel concentration ([1]; first dilution (0.098 mg/mL at 0 h), time 120 hours): 0.097 mg/mL | Cabazitaxel concentration ([1]; second dilution (0.268 mg/mL at 0 h) of 2.02 mg/mL in 20% SBECD, time 0 hours): 0.268 mg/mL | Cabazitaxel concentration ([1]; second dilution (0.268 mg/mL at 0 h), time 11 hours): 0.268 mg/mL | Cabazitaxel concentration ([1]; second dilution (0.268 mg/mL at 0 h), time 24.5 hours): 0.269 mg/mL | Cabazitaxel concentration ([1]; second dilution (0.268 mg/mL at 0 h), time 36 hours): 0.268 mg/mL | Cabazitaxel concentration ([1]; second dilution (0.268 mg/mL at 0 h), time 45 hours): 0.268 mg/mL | Cabazitaxel concentration ([1]; second dilution (0.268 mg/mL at 0 h), time 100 hours): 0.263 mg/mL | Cabazitaxel concentration ([1]; second dilution (0.268 mg/mL at 0 h), time 120 hours): 0.266 mg/mL | Cabazitaxel concentration ([1]; third dilution (0.510 mg/mL at 0 h) of 2.02 mg/mL in 20% SBECD, time 0 hours): 0.510 mg/mL | Cabazitaxel concentration ([1]; third dilution (0.510 mg/mL at 0 h), time 11 hours): 0.515 mg/mL | Cabazitaxel concentration ([1]; third dilution (0.510 mg/mL at 0 h), time 24.5 hours): 0.518 mg/mL | Cabazitaxel concentration ([1]; third dilution (0.510 mg/mL at 0 h), time 36 hours): 0.512 mg/mL | Cabazitaxel concentration ([1]; third dilution (0.510 mg/mL at 0 h), time 45 hours): 0.517 mg/mL | Cabazitaxel concentration ([1]; third dilution (0.510 mg/mL at 0 h), time 100 hours): 0.512 mg/mL | Cabazitaxel concentration ([1]; third dilution (0.510 mg/mL at 0 h), time 120 hours): 0.518 mg/mL | solubility thermodynamic at 16 h ([2]; aqueous SBECD 1%): 270 µg/mL (≈ 323 µM) | solubility thermodynamic at 16 h ([2]; aqueous SBECD 2%): 460 µg/mL (≈ 550 µM) | solubility thermodynamic at 16 h ([2]; aqueous SBECD 10%): 990 µg/mL (≈ 1180 µM) | solubility thermodynamic at 16 h ([2]; aqueous SBECD 20%): 2280 µg/mL (≈ 2730 µM) | solubility thermodynamic at 16 h ([2]; aqueous SBECD 40%): 4170 µg/mL (≈ 4990 µM)
